The structures appear in SMILES notation. Where a name gives a salt, the structure may show the parent alone.

What all share (assay type): cell-based
The test system of assay [1] is guinea pig TGR5. Nature of the assay: cAMP production increasing activity in guinea pig TGR5 expressing CHO cells. As to conditions: test compound 2 μM; 10 μM lithocholic acid = 100%; average of 3 groups. As for the experimental part: (§1) The guinea pig type TGR5 expressing CHO cells were seeded in one 150 cm^2 flask at 1×10^7 cells, and cultured overnight at 37° C., 5% CO2. After culture, the cells were detached with 0.5 mM EDTA/PBS, washed with PBS, and suspended in Buffer 1 (HBSS+0.1% BSA, 25 mM HEPES pH 7.3, 0.5 mM IBMX) at a density of 1×10^7 cells/ml. The obtained cell suspension (460 μl), anti-cAMP acceptor beads (23 μl) of AlphaScreen cAMP assay kit (Perkin Elmer) and Buffer 1 (667 μl) were mixed and dispensed to a white 96 well plate (Costar) by 10 μl. Then, a test compound diluted with Buffer 1 was added to each well by 10 μl. At this time, one row of the plate was free of the cell suspension but added with anti-cAMP acceptor beads (9 μl) and Buffer 1 (441 μl) alone, and serial dilutions of cAMP were added instead of the test compound and used as the standard. A mixture of the cell suspension and the test compound contained in the plate was allowed to react at room temperature for 30 min. […] The plate was shaken at room temperature for 2.5 hrs and fluorescence intensity was measured by Fusion α (Parkin Elmer), and the cAMP concentration of each well was calculated using the cAMP standard on each plate.

Assay [2] addresses T1, rat TGR5 (Rattus norvegicus, UniProt Q80T02).
T1 construct: expressed in transfected cells; host or cells: CHO cells
T1 sequence (Q80T02 1-329): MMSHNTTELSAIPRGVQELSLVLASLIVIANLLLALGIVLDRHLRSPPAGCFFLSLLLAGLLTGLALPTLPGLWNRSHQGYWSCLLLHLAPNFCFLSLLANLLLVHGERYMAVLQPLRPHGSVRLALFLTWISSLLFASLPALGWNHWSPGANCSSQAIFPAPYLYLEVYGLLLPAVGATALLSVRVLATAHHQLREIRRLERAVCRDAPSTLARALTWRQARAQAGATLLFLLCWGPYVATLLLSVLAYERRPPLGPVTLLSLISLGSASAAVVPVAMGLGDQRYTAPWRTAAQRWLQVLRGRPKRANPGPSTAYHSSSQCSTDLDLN
The experiment in a line: cAMP production increasing activity in rat type TGR5 expressing CHO cells. As to conditions: 0.5 h, read-out: cAMP producing activity (control %). As for the experimental part: as §1, with “After” for “The guinea pig type TGR5 expressing CHO cells were seeded in one 150 cm^2 flask at 1×10^7 cells, and cultured overnight at 37° C., 5% CO2. After”
For orientation: Changes in cAMP serve as a functional read-out for many G protein-coupled receptors.

In assay [3] the target is T2, human TGR5 (Homo sapiens, UniProt Q8TDU6).
T2 construct: expressed in transfected cells; host or cells: CHO cells
T2 sequence (Q8TDU6 1-330): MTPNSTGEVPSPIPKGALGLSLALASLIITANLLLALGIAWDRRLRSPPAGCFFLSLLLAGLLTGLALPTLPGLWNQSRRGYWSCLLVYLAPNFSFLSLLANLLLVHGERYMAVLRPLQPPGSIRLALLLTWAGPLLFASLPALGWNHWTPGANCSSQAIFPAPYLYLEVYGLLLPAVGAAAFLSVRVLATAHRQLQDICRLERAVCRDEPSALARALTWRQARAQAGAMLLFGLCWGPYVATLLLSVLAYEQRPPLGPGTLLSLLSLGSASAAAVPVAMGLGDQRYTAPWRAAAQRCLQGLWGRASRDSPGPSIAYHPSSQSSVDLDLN
Nature of the assay: cAMP production increasing activity in human TGR5 expressing CHO cells. As to conditions: read-out: EC50 value (concentration necessary to make the cAMP production amount 50%).

Assay [4] deals with T2, human TGR5. The assay is described as above. As to conditions: test compound 1 μM, 30 min; 1 μM lithocholic acid = 100%, no addition = 0%; average of 3 groups. As for the experimental part:
As the assay buffer, Hank's balanced salt solution (HBSS, Invitrogen) supplemented with 0.1% bovine serum albumin (BSA, Sigma) and 0.5 mM 3-isobutyl-1-methylxanthine (IBMX, Sigma) was used. A test compound sample (1 μM) diluted with the assay buffer was added to the cells. The cells were incubated at 37° C. for 30 min. and the supernatant was suctioned. The intracellular cAMP amount increased by the stimulation of the test compound was quantitatively determined using a HitHunter™ EFC Cyclic AMP Chemiluminescence Assay Kit (ABI) kit.

Turning to `O=C(c1cc(Cl)cc(Cl)c1)N1CCOc2nccc(-c3ccccc3)c2C1` [Example 32C, 4-(3,5-dichlorobenzoyl)-6-phenyl-2,3,4,5-tetrahydropyrido[3,2-f][1,4]oxazepine], the “cAMP producing activity (control %)” value in assay [1] worked out at 89 control %. On to `COC(=O)NCc1cccc(C2OC(CC(=O)NCC3CCCCC3)C(=O)N(CC(C)(C)C)c3ccc(Cl)cc32)c1` (stereo not drawn) [Example 30, methyl [3-[3,5-trans-7-chloro-3-[2-[(cyclohexylmethyl)amino]-2-oxoethyl]-1-neopentyl-2-oxo-1,2,3,5-tetrahydro-4,1-benzoxazepin-5-yl]benzyl]carbamate], for which the “cAMP producing activity (control %)” value in assay [1] was found to be 86 control %. The activation at 2 µM in assay [2] was found to be 114%. Moreover, the EC50 in assay [3] is < 100 nM.

`CC(C)(C)CN1C(=O)[C@@H](CC(=O)NCc2ccccc2F)O[C@@H](c2cccc(CNS(C)(=O)=O)c2)c2cc(Cl)ccc21` (relative stereo) [Reference Example 4, 2-[3,5-trans-7-chloro-5-[3-(methanesulfonylaminomethyl)phenyl]-1-neopentyl-2-oxo-1,2,3,5-tetrahydro-4,1-benzoxazepin-3-yl]-N-(2-fluorobenzyl)acetamide]: the “cAMP production increasing activity (control %)” value in assay [4] is 80 control %. Take `CC(C)(C)CN1C(=O)[C@@H](CC(=O)NCc2ccccc2F)O[C@@H](c2cccc(CNC(=O)C(F)(F)F)c2)c2cc(Cl)ccc21` (relative stereo) [Reference Example 5, N-[3-[3,5-trans-7-chloro-3-[2-[(2-fluorobenzyl)amino]-2-oxoethyl]-1-neopentyl-2-oxo-1,2,3,5-tetrahydro-4,1-benzoxazepin-5-yl]benzyl]-2,2,2-trifluoroacetamide]: the “cAMP production increasing activity (control %)” value in assay [4] was found to be 116 control %. Turning to `CC(C)(C)CN1C(=O)[C@@H](CC(=O)NCc2ccccc2F)O[C@@H](c2cccc(CO)c2)c2cc(Cl)ccc21` (relative stereo) [Reference Example 9, 2-[3,5-trans-7-chloro-5-[3-(hydroxymethyl)phenyl]-1-neopentyl-2-oxo-1,2,3,5-tetrahydro-4,1-benzoxazepin-3-yl]-N-(2-fluorobenzyl)acetamide], in assay [4], the “cAMP production increasing activity (control %)” value is 128 control %. As for `CC(C)(C)CN1C(=O)C(CC(=O)NCc2ccccc2F)OC(c2cccc(Cn3ccnc3)c2)c2cc(Cl)ccc21` (stereo not drawn) [Example 60, 2-[3,5-trans-7-chloro-5-[3-(1H-imidazol-1-ylmethyl)phenyl]-1-neopentyl-2-oxo-1,2,3,5-tetrahydro-4,1-benzoxazepin-3-yl]-N-(2-fluorobenzyl)acetamide], in assay [3], the EC50 was < 100 nM. Regarding `Fc1ccc(-c2ccnc3c2CN(Cc2cc(C(F)(F)F)cc(C(F)(F)F)c2)CCCCO3)cc1` [Example 61C, 6-[3,5-bis(trifluoromethyl)benzyl]-8-(4-fluorophenyl)-2,3,4,5,6,7-hexahydropyrido[2,3-b][1,5]oxazonine], the activation at 2 µM in assay [2] came out at 101%. Besides, in assay [3], the EC50 was < 100 nM. For `COC(=O)NCc1cccc(C2OC(CC(=O)NCc3ccccc3F)C(=O)N(CC(C)C)c3ccc(Cl)cc32)c1` (stereo not drawn) [Example 43, methyl [3-[3,5-trans-7-chloro-3-[2-[(2-fluorobenzyl)amino]-2-oxoethyl]-1-isobutyl-2-oxo-1,2,3,5-tetrahydro-4,1-benzoxazepin-5-yl]benzyl]carbamate], the “cAMP producing activity (control %)” value in assay [1] came out at 82 control %. In assay [3], the EC50 is < 100 nM. In the case of `O=S(=O)(c1cccc2ccccc12)N1CCOc2nccc(-c3ccccc3)c2C1` [Example 42C, 4-(1-naphthylsulfonyl)-6-phenyl-2,3,4,5-tetrahydropyrido[3,2-f][1,4]oxazepine], the “cAMP producing activity (control %)” value in assay [1] is recorded as 104 control %. Also, the EC50 in assay [3] was < 100 nM. For `CC(C)(C)CN1C(=O)C(CC(=O)NCc2ccccc2F)N(Cc2ccncc2)Cc2ccccc21` (centres unmarked) [Example 30B, N-(2-fluorobenzyl)-2-[1-neopentyl-2-oxo-4-(pyridin-4-ylmethyl)-2,3,4,5-tetrahydro-1H-1,4-benzodiazepin-3-yl]acetamide], the activation at 2 µM in assay [2] amounted to 108%. Besides, in assay [3], the EC50 was < 100 nM. With `FC(F)(F)c1cc(CCN2CCOc3nccc(-c4ccccc4)c3C2)cc(C(F)(F)F)c1` [Example 45C, 4-{2-[3,5-bis(trifluoromethyl)phenyl]ethyl}-6-phenyl-2,3,4,5-tetrahydropyrido[3,2-f][1,4]oxazepine hydrochloride], the EC50 in assay [3] was < 100 nM.

As to `CC(C)(C)CN1C(=O)[C@@H](CC(=O)NCc2ccccc2F)O[C@@H](c2cccc(N)c2)c2cc(Cl)ccc21` (relative stereo) [Reference Example 1, 2-[3,5-trans-5-(3-aminophenyl)-7-chloro-1-neopentyl-2-oxo-1,2,3,5-tetrahydro-4,1-benzoxazepin-3-yl]-N-(2-fluorobenzyl)acetamide], in assay [4], the “cAMP production increasing activity (control %)” value was found to be 97 control %. With `O=S(=O)(c1cc(C(F)(F)F)cc(C(F)(F)F)c1)N1CCCOc2nccc(-c3ccc(F)cc3)c2C1` [Example 60C, 5-{[3,5-bis(trifluoromethyl)phenyl]sulfonyl}-7-(4-fluorophenyl)-3,4,5,6-tetrahydro-2H-pyrido[2,3-b][1,5]oxazocine], in assay [3], the EC50 is < 100 nM. Consider `CC(C)(C)CN1C(=O)[C@@H](CC(=O)NCc2ccccc2F)O[C@@H](c2cccc(C3OCCO3)c2)c2cc(Cl)ccc21` (relative stereo) [Reference Example 2, 2-[3,5-trans-7-chloro-5-[3-([1,3]dioxolan-2-yl)phenyl]-1-neopentyl-2-oxo-1,2,3,5-tetrahydro-4,1-benzoxazepin-3-yl]-N-(2-fluorobenzyl)acetamide], for which the “cAMP production increasing activity (control %)” value in assay [4] is listed as 108 control %. Turning to `CC(=O)NCc1cccc(C2OC(CC(=O)NCC3CCCCCC3)C(=O)N(CC(C)(C)C)c3ccc(Cl)cc32)c1` (stereo not drawn) [Example 17, 2-[3,5-trans-5-[3-(acetylaminomethyl)phenyl]-7-chloro-1-neopentyl-2-oxo-1,2,3,5-tetrahydro-4,1-benzoxazepin-3-yl]-N-(cycloheptylmethyl)acetamide], the activation at 2 µM in assay [2] was 107%. In addition, the EC50 in assay [3] was < 100 nM. For the compound `Cc1cc(C(=O)N2Cc3ccccc3N(CC(C)C)C(=O)C2CC(=O)NCc2ccccc2F)ccn1` (centres unmarked) [Example 23B, N-(2-fluorobenzyl)-2-[1-isobutyl-4-(2-methylisonicotinoyl)-2-oxo-2,3,4,5-tetrahydro-1H-1,4-benzodiazepin-3-yl]acetamide], the EC50 in assay [3] is < 100 nM.

For the origin of these results see patent US7625887B2, “Receptor agonists” (Takeda Pharmaceutical Company Limited, priority 2003, dated 2009).
